Test results: US12667586B2, “Treatments for ocular surface disorders” (Glaukos Corporation, priority 2023, dated 2026)
pIC50: −log10 of the molar value.

Legend:
Cx43 hemichannels = Cx43 hemichannels (Homo sapiens, UniProt P17302); conditions: cited from earlier work
gap junctions = conditions: in some circumstances; cited from earlier work
[1] = test system: ATP release in glioma cells; conditions: read-out: IC50 (half maximal inhibitory concentration) for the inhibition of ATP release; cited from earlier work
[2] = molecular target: gap junctions (Homo sapiens); conditions: at 17 μM; cited from earlier work
Chain of gap junctions (Homo sapiens) (P08034 whole entry): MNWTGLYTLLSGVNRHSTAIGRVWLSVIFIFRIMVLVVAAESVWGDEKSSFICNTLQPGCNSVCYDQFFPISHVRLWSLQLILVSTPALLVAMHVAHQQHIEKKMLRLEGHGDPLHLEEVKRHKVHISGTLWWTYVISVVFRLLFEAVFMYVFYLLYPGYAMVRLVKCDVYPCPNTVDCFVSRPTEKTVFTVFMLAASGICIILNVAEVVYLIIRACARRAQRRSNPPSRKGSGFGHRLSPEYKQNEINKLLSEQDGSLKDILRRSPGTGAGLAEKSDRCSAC

[3] = test system: persistent epithelial defect (PED) of the cornea; test: Phase 2 randomized, double-masked, vehicle-controlled study in subjects with persistent epithelial defects (PED) from ocular chemical and/or thermal injuries; format: in vivo, human; conditions: for subjects who achieved corneal epithelial recovery (re-epithelialized by Day 28 and remained so for at least 28 days): topical under bandage contact lens and to fornices, Day 1, Day 2, Day 14 if not re-epithelialized, n=12, full data set
Source text: A Phase 2, Randomized, Prospective, Double-Masked, Vehicle-Controlled Study to Assess the Efficacy and Safety of Lufepirsen® (Lufepirsen) Applied Topically in Subjects with Persistent Epithelial Defects (PED) Resulting from Ocular Chemical and/or Thermal Injuries.
This Example describes the use of an exemplary connexin modulator (lufepirsen) in a randomized, prospective, vehicle-controlled, double-masked, human clinical trial to treat non-healing ocular surface defects. Lufepirsen is a connexin 43 antisense oligonucleotide according to SEQ ID NO:1. The vehicle comparator in the trial was Pluronic F-127.
Study Subjects: A total of 35 subjects were enrolled in this clinical trial. All eligible subjects presented with a non-infected, persistent epithelial defect (PED) of the cornea as a result of a chemical and/or thermal ocular injury, that was refractory to current standard of care for at least 14 days. Of the 35 subjects, 24 subjects received topical ocular dose administrations of […] and 11 subjects received Vehicle. […]
• Corneal epithelial recovery, defined as a cornea that re-epithelializes by Day 28 of treatment and remains re-epithelialized for at least 28 days after initial re-epithelialization was first recorded, as assessed by the Investigator. Secondary Endpoints: • The time to epithelialization defined as the time from randomization to the time of initial re-epithelialization. • Improvement of visual acuity from baseline over the course of the study period. • Number of […] treatment doses required for recovery of the corneal epithelium. Exploratory Endpoints: • Change from baseline in PED area defined as the largest diameter times the largest one perpendicular to it, within the confines of the epithelial defect. • Corneal re-epithelialization, defined as a cornea that has re-epithelialized by Day 28 of treatment. • Change from baseline in ocular symptoms. • Primary, secondary, and exploratory endpoints were also assessed (as applicable) for the open-label section of the study. • Descriptive comparison of intrasubject corneal re-epithelization to fellow eye in subjects with bilateral injuries Safety: • Incidence of Treatment Emergent Adverse Events.
Treatment Dosing: The study comprised of a 28-day Treatment Period, followed by a Post-treatment Follow-up Period of at least 28 days to evaluate both safety and re-epithelization status (durability), both of which were double-masked (i.e., double-blinded). Once determined to be eligible, subjects were randomized to receive either […] 0.06% or […] 0.006% or Vehicle in a 1:1:1 ratio respectively. Investigational product was applied under a bandage contact lens (BCL) and to the fornices of the study eye at the following time points during the Treatment Period: • Day 1 • Day 2 • Day 14 (if the cornea has not re-epithelialized)
The eye was then covered with a double eye pad and taped shut for approximately 8 hours.
Three treatment arms were evaluated in the study. Randomization was in a 1:1:1 ratio: • GROUP A—[…] 0.06% • GROUP B—[…] 0.006% • GROUP C—Vehicle
There was a single application of investigational product on Day 1 and Day 2. A potential additional application of investigational product was scheduled at Day 14 if re-epithelialization has not occurred.
The first investigational product application occurred following randomization on Day 1 of the Treatment Period, with the second application administered on Day 2. […]

Chain of Cx43 hemichannels (P17302 2-382 limits assumed): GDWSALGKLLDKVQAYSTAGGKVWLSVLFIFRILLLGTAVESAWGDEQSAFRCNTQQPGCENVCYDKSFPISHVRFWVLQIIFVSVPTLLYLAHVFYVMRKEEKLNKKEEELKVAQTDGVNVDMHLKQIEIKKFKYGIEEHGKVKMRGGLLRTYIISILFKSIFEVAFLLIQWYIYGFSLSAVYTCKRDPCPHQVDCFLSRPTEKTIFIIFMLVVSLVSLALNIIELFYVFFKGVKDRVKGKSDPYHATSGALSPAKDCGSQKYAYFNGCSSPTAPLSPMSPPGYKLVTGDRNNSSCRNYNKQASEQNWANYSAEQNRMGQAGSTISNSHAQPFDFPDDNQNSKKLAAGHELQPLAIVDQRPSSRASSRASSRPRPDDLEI

## VDCFLSRPTEKT [Peptide5]
Cx43 hemichannels
  concentration at which Cx43 hemichannels are inhibited: 5 to 10 µM
Gap junctions
  concentration at which incubation also leads to inhibition of gap junctions: ≥ 100 µM

## YGRKKRRQRRRKQIEIKKFK [TAT-^43Gap19]
[1]
  pIC50: 5.15

## GHGDPLHLEEVKC [^32Gap24, peptide that mimics a 13 amino acid long stretch of the L2 region of Cx32]
[2]
  effect on gap junctions: without affecting gap junctions

## 5′-GTAATTGCGGCAAGAAGAATTGTTTCTGTC-3′ (antisense GTAATTGCGGCAAGAAGAATTGTTTCTGTC; listed as DNA, chemistry not given here)
[3]; LUFEPIRSEN 0.006%
  subjects who achieved corneal epithelial recovery (re-epithelialized by Day 28 and remained so for at least 28 days): 66.7%
[3]; LUFEPIRSEN 0.06%
  subjects who achieved corneal epithelial recovery (re-epithelialized by Day 28 and remained so for at least 28 days): 66.7%
[3]; TEAEs across all 3 treatment groups mild to moderate, unlikely/unrelated to study drug, a SAE not related to study drug
  tolerability of treatment (TEAEs): well tolerated
[3]; both LUFEPIRSEN doses pooled (n=24) vs VEH (n=11)
  times more likely to heal than the vehicle group: 2.44 times
[3]; both LUFEPIRSEN doses pooled (n=24) vs VEH (n=11), Fisher's exact test p=0.065
  comparative improvement in corneal epithelial recovery over the VEH group: 39.4%
